According to paper PMC6180429 (Organic & Biomolecular Chemistry, 2018):
pEC50: −log10 of the molar value.

Tests used:
[1] = molecular target: T1, PPARγ (peroxisome proliferator-activated receptor γ) (Homo sapiens, UniProt P37231); test: Gal4-PPARγ-LBD one-hybrid luciferase reporter assay in HEK293 cells (partial agonist); format: cell-based
T1 construct: gene PPARG
T1 sequence (P37231 232-505 limits assumed): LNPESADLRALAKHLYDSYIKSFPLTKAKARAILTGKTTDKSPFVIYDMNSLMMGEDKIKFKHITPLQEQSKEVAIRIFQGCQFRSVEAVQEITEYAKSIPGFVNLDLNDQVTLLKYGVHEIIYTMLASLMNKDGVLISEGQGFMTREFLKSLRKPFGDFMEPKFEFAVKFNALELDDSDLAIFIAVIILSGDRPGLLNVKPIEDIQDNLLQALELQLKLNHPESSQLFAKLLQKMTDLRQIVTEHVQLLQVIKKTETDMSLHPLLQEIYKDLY

[2] = molecular target: T1, PPARγ (peroxisome proliferator-activated receptor γ); test: Gal4-PPARγ reporter assay in HEK293 cells, antagonism of […] pioglitazone; format: cell-based

C=CCc1ccc(O)c(-c2cc(C/C=C\CCCc3cc(O)ccc3CC=C)ccc2O)c1 [IV, Sesqui magnolol B]
pEC50 [1]: 6.11

C=CCc1ccc(O)cc1CCC/C=C\Cc1ccc(O)cc1 [V, Truncated magnolol dimer]
Gal4-PPARγ reporter assay in HEK293 cells, antagonism of 10 μM pioglitazone [2]: V showed a dose-dependent inhibition of the pioglitazone induced PPARγ-Gal4 activation.

C=CCc1ccc(O)c(-c2cc(CC=C)c(CCC/C=C\Cc3ccc(O)cc3)cc2O)c1 [III, Sesqui magnolol A]
pEC50 [1]: 5.97
